Assay [1] in a line: Cytotoxicity against human SPC-A1 cells after 48 hrs by MTT assay. The note with it: SPCA1, 48 h. The format is functional, cell-based.
For assay [2], the system named is Bel-7402. As to the kind of experiment: Cytotoxicity against human Bel7402 cells after 48 hrs by MTT assay. The format is functional, cell-based. The note with it: Bel-7402, 48 h.

A word on the IC50: it is the concentration at which inhibition is half-maximal. With `C=C(C)[C@@]12OC3(c4ccccc4)O[C@@H]1[C@@H]1[C@H](OC(C)=O)[C@@](C)(OC(=O)c4ccccc4)[C@@H](OC(C)=O)[C@@]4(O)[C@@H](C[C@H](C)[C@@H]4OC(C)=O)[C@@]1(O3)[C@H](C)[C@@H]2OC(C)=O` [TRIGOXYPHIN I], the values for the half-inhibitory concentration (IC50) in assay [1] and in assay [2] were 11.1 µM and 8.73 µM, respectively.
Taken in the same sequence, the figures for `C=C(C)[C@@]12OC3(c4ccccc4)O[C@@H]1[C@@H]1[C@@H]4O[C@]4(C)[C@@H](O)[C@@H]4C(=O)C(C)=C[C@@H]4[C@@]1(O3)[C@H](C)[C@@H]2OC(=O)c1ccccc1` (relative stereo) were 37.3 µM and 16.1 µM.

(Values after ChEMBL document CHEMBL2034942, “Trigoxyphins H and I: two new daphnane diterpenoids from Trigonostemon xyphophylloides” (Bioorg Med Chem Lett, 2012).)
